Measured values published in patent US20230158025A1 (UNIVERSITY OF UTAH RESEARCH FOUNDATION, priority 2020, published 2023).
Read-outs that look alike come from different tables or passages of the source.

Columns and labels:
recombinant human GALK1 = recombinant human GALK1 (Homo sapiens, UniProt P51570); experiment: hGALK1 biochemical activity assay (Kinase-Glo Plus, ATP depletion)
In short: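 Recombinant human or mouse GALK1 (5 nM, with 100 μM galactose, in the added enzyme solution) was run with ATP (35 μM in the substrate solution) in HEPES pH 8.0 buffer. Compounds were tested at 11 1/3-step concentrations from 57.4 μM to 0.97 nM. After 1 h at room temperature, remaining ATP was read by Kinase-Glo Plus luminescence.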

PAMPA permeability = details: PAMPA
recombinant mouse GALK1 = recombinant mouse GALK1 (Mus musculus, UniProt Q9R0N0); experiment: mGALK1 biochemical activity assay (Kinase-Glo Plus, ATP depletion)
In short: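 Recombinant GALK1 (5 nM) with 100 μM galactose; GALK1 turnover read as ATP depletion by Kinase-Glo Plus luminescence. Reaction ran 1 h at room temperature before detection reagent was added.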

[1] = rat microsomal stability (RLM); details: microsomal stability half-life
[2] = aqueous kinetic solubility; details: aqueous kinetic solubility
[3] = recombinant human GALK1, Kinase-Glo Plus ATP depletion, read-out: hGALK
[4] = recombinant mouse GALK1, Kinase-Glo Plus ATP depletion, read-out: mGALK
[5] = Tables 2-15, 35 μM ATP, 100 μM galactose, 1 h, bracketed figure after some values (e.g. −1.2) is undefined and not reported, read-out: hGALK IC50
[6] = Tables 2-15, 35 μM ATP, 100 μM galactose, 1 h, bracketed figure after some values is undefined and not reported, read-out: mGALK IC50

Chain of recombinant mouse GALK1 (Q9R0N0 whole entry): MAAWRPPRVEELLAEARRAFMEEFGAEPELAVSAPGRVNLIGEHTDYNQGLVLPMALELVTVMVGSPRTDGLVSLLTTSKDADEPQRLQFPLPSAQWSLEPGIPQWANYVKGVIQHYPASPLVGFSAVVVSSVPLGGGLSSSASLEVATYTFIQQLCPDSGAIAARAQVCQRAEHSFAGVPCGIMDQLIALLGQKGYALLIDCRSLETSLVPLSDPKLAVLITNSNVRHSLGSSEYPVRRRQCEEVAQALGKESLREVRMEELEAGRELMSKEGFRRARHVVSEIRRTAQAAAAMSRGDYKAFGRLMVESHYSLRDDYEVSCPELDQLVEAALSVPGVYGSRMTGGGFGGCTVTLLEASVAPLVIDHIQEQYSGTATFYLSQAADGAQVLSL
Chain of recombinant human GALK1 (P51570 whole entry): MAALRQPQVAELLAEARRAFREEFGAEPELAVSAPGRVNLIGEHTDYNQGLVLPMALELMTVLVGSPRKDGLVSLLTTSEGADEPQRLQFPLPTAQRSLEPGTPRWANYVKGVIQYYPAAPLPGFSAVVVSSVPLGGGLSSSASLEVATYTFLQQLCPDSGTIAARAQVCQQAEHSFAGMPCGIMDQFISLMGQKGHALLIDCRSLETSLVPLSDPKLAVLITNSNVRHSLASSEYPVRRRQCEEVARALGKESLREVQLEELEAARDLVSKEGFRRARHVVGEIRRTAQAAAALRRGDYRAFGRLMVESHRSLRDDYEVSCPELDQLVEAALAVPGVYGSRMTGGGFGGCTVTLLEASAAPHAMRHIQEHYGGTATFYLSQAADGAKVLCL

SMILES | IC50 (recombinant human GALK1; [3]) | Perm. (1 × 10^−6 cm/sec) (PAMPA permeability) | IC50 (recombinant mouse GALK1; [4]) | Metab. Stabil. (m) [1] | Sol. [2] | IC50 (recombinant human GALK1; [5]) | IC50 (recombinant mouse GALK1; [6])
COC(=O)c1ccc(NC(=O)C2=C(C)NC(Nc3nc4ccccc4o3)=NC2c2ccccc2Cl)cn1 (stereo not drawn) [Compound 166, methyl 5-(2-(benzo[d]oxazol-2-ylamino)-4-(2-chlorophenyl)-6-methyl-1,4-dihydropyrimidine-5-carboxamido)picolinate] | 6.11 µM | 96.1 1 × 10^−6 cm/sec | 6.85 µM | 4.678 m | <1 µg/mL | – | –
CC1=C(C(=O)Nc2nnc(C(F)(F)F)s2)C(c2ccccc2Cl)N=C(Nc2nc3ccccc3o2)N1 (stereo not drawn) [Compound 167, 2-(benzo[d]oxazol-2-ylamino)-4-(2-chlorophenyl)-6-methyl-N-(5-(trifluoromethyl)-1,3,4-thiadiazol-2-yl)-1,4-dihydropyrimidine-5-carboxamide] | 12.2 µM | 12.6 1 × 10^−6 cm/sec | 21.7 µM | >30 m | <1 µg/mL | 12.2 µM | 21.7 µM
CCOC(=O)c1nnc(NC(=O)C2=C(C)NC(Nc3nc4ccccc4o3)=NC2c2ccccc2Cl)s1 (stereo not drawn) [Compound 168, ethyl 5-(2-(benzo[d]oxazol-2-ylamino)-4-(2-chlorophenyl)-6-methyl-1,4-dihydropyrimidine-5-carboxamido)-1,3,4-thiadiazole-2-carboxylate] | 4.85 µM | <2.7 1 × 10^−6 cm/sec | – | 3.158 m | <1 µg/mL | 4.85 µM | 10.9 µM
COC(=O)Cc1ccc(NC(=O)C2=C(C)NC(Nc3nc4ccccc4o3)=NC2c2ccccc2Cl)cc1 (stereo not drawn) [Compound 170, methyl 2-(4-(2-(benzo[d]oxazol-2-ylamino)-4-(2-chlorophenyl)-6-methyl-1,4-dihydropyrimidine-5-carboxamido)phenyl)acetate] | 5.44 µM | 195.0 1 × 10^−6 cm/sec | 12.2 µM | 7.464 m | <1 µg/mL | 5.44 µM | 12.2 µM

Second part, the molecule after the results:

IC50 (recombinant human GALK1; [3]) | Perm. (1 × 10^−6 cm/sec) (PAMPA permeability) | IC50 (recombinant mouse GALK1; [4]) | Metab. Stabil. (m) [1] | Sol. [2] | IC50 (recombinant human GALK1; [5]) | IC50 (recombinant mouse GALK1; [6]) | SMILES
4.85 µM | 766.1 1 × 10^−6 cm/sec | 7.69 µM | >30 m | <1 µg/mL | – | – | CC1=C(C(=O)Nc2ccc(CO)nc2)C(c2ccccc2Cl)N=C(Nc2nc3ccccc3o2)N1 (stereo not drawn) [Compound 165, 2-(benzo[d]oxazol-2-ylamino)-4-(2-chlorophenyl)-N-(6-(hydroxymethyl)pyridin-3-yl)-6-methyl-1,4-dihydropyrimidine-5-carboxamide]
10.9 µM | 32.7 1 × 10^−6 cm/sec | 6.85 µM | >30 m | 37.5 µg/mL | 10.9 µM | 6.85 µM | CC1=C(C(=O)Nc2cccc(CN)c2)C(c2ccccc2Cl)N=C(Nc2nc3ccccc3o2)N1 (stereo not drawn) [Compound 171, N-(3-(aminomethyl)phenyl)-2-(benzo[d]oxazol-2-ylamino)-4-(2-chlorophenyl)-6-methyl-1,4-dihydropyrimidine-5-carboxamide]
19.3 µM | 5.0 1 × 10^−6 cm/sec | 34.3 µM | >30 m | 47.5 µg/mL | 19.3 µM | 34.3 µM | CC1=C(C(=O)Nc2cccc(-c3nnn[nH]3)c2)C(c2ccccc2Cl)N=C(Nc2nc3ccccc3o2)N1 (stereo not drawn) [Compound 175, N-(3-(1H-tetrahydro-5-yl)phenyl)-2-(benzo[d]oxazol-2-ylamino)-4-(2-chlorophenyl)-6-methyl-1,4-dihydropyrimidine-5-carboxamide]
10.9 µM | <17.4 1 × 10^−6 cm/sec | 13.7 µM | 10.34 m | <1 µg/mL | 10.9 µM | 13.7 µM | COC(=O)Cc1cccc(NC(=O)C2=C(C)NC(Nc3nc4ccccc4o3)=NC2c2ccccc2Cl)c1 (stereo not drawn) [Compound 176, methyl 2-(3-(2-(benzo[d]oxazol-2-ylamino)-4-(2-chlorophenyl)-6-methyl-1,4-dihydropyrimidine-5-carboxamido)phenyl)acetate]
